Assay: isobaric coefficient of expansion; xn = mol fraction of the nth substance listed
Conditions: calorimetric method

CCCCCCO [hexan-1-ol] + CCCCCC
isobaric coefficient of expansion
Conditions	5000 kPa	10000 kPa	15000 kPa	20000 kPa	25000 kPa	30000 kPa	35000 kPa	40000 kPa	45000 kPa	50000 kPa
278.15 K, x1 = 0.0321	0.00122 1/K	0.00117 1/K	0.00114 1/K	0.0011 1/K	0.00107 1/K	0.00104 1/K	0.00101 1/K	0.000982 1/K	0.000957 1/K	0.000935 1/K
278.15 K, x1 = 0.041	0.00122 1/K	0.00118 1/K	0.00114 1/K	0.0011 1/K	0.00107 1/K	0.00104 1/K	0.00101 1/K	0.000977 1/K	0.000958 1/K	0.000937 1/K
278.15 K, x1 = 0.0946	0.00119 1/K	0.00115 1/K	0.00112 1/K	0.00108 1/K	0.00105 1/K	0.00102 1/K	0.000997 1/K	0.000967 1/K	0.000942 1/K	0.000925 1/K
278.15 K, x1 = 0.1679	0.00116 1/K	0.00112 1/K	0.00108 1/K	0.00105 1/K	0.00102 1/K	0.000996 1/K	0.000974 1/K	0.000947 1/K	0.000923 1/K	0.000907 1/K
278.15 K, x1 = 0.2153	0.00114 1/K	0.0011 1/K	0.00107 1/K	0.00103 1/K	0.00101 1/K	0.000979 1/K	0.000958 1/K	0.000928 1/K	0.000909 1/K	0.000892 1/K
278.15 K, x1 = 0.3016	0.0011 1/K	0.00106 1/K	0.00103 1/K	0.000999 1/K	0.000978 1/K	0.000953 1/K	0.000932 1/K	0.000911 1/K	0.000887 1/K	0.000868 1/K
278.15 K, x1 = 0.4075	0.00105 1/K	0.00102 1/K	0.000995 1/K	0.000967 1/K	0.000946 1/K	0.000921 1/K	0.000903 1/K	0.000877 1/K	0.000859 1/K	0.000844 1/K
278.15 K, x1 = 0.503	0.00101 1/K	0.000989 1/K	0.000961 1/K	0.00094 1/K	0.000917 1/K	0.000893 1/K	0.000876 1/K	0.000851 1/K	0.000835 1/K	0.00082 1/K
278.15 K, x1 = 0.594	0.000978 1/K	0.000951 1/K	0.000932 1/K	0.000902 1/K	0.000887 1/K	0.000864 1/K	0.00085 1/K	0.000831 1/K	0.000804 1/K	0.0008 1/K
278.15 K, x1 = 0.6827	0.000937 1/K	0.000916 1/K	0.000897 1/K	0.000874 1/K	0.000857 1/K	0.00084 1/K	0.000824 1/K	0.000804 1/K	0.000791 1/K	0.000775 1/K
278.15 K, x1 = 0.8013	0.000892 1/K	0.000865 1/K	0.000857 1/K	0.000834 1/K	0.000819 1/K	0.000806 1/K	0.000784 1/K	0.000769 1/K	0.000756 1/K	0.000745 1/K
278.15 K, x1 = 0.8934	0.00085 1/K	0.000837 1/K	0.000817 1/K	0.000803 1/K	0.000789 1/K	0.000775 1/K	0.000756 1/K	0.000751 1/K	0.000733 1/K	0.000723 1/K
278.15 K, x1 = 1	0.000821 1/K	0.0008 1/K	0.000788 1/K	0.000778 1/K	0.00076 1/K	0.000748 1/K	0.000733 1/K	0.000723 1/K	0.000716 1/K	0.000708 1/K
298.15 K, x1 = 0.0321	0.0013 1/K	0.00124 1/K	0.0012 1/K	0.00115 1/K	0.00111 1/K	0.00107 1/K	0.00104 1/K	0.00101 1/K	0.00098 1/K	0.000951 1/K
298.15 K, x1 = 0.041	0.0013 1/K	0.00124 1/K	0.0012 1/K	0.00115 1/K	0.00111 1/K	0.00108 1/K	0.00104 1/K	0.00101 1/K	0.000985 1/K	0.000959 1/K
298.15 K, x1 = 0.0946	0.00127 1/K	0.00122 1/K	0.00118 1/K	0.00113 1/K	0.0011 1/K	0.00106 1/K	0.00103 1/K	0.000999 1/K	0.000969 1/K	0.000946 1/K
298.15 K, x1 = 0.1679	0.00124 1/K	0.00119 1/K	0.00115 1/K	0.0011 1/K	0.00107 1/K	0.00104 1/K	0.00101 1/K	0.000977 1/K	0.00095 1/K	0.000926 1/K
298.15 K, x1 = 0.2153	0.00121 1/K	0.00116 1/K	0.00112 1/K	0.00108 1/K	0.00105 1/K	0.00102 1/K	0.000988 1/K	0.000962 1/K	0.000936 1/K	0.000913 1/K
298.15 K, x1 = 0.3016	0.00117 1/K	0.00112 1/K	0.00109 1/K	0.00105 1/K	0.00101 1/K	0.000984 1/K	0.000958 1/K	0.000935 1/K	0.000908 1/K	0.000883 1/K
298.15 K, x1 = 0.4075	0.00112 1/K	0.00108 1/K	0.00105 1/K	0.00102 1/K	0.000986 1/K	0.000957 1/K	0.00093 1/K	0.000912 1/K	0.000888 1/K	0.000868 1/K
298.15 K, x1 = 0.503	0.00108 1/K	0.00104 1/K	0.00101 1/K	0.000982 1/K	0.000952 1/K	0.000928 1/K	0.000904 1/K	0.000879 1/K	0.000864 1/K	0.000844 1/K
298.15 K, x1 = 0.594	0.00103 1/K	0.001 1/K	0.000975 1/K	0.000944 1/K	0.00092 1/K	0.000897 1/K	0.000873 1/K	0.000856 1/K	0.000836 1/K	0.000819 1/K
298.15 K, x1 = 0.6827	0.000993 1/K	0.000965 1/K	0.000939 1/K	0.000913 1/K	0.00089 1/K	0.000868 1/K	0.000846 1/K	0.000827 1/K	0.000812 1/K	0.000794 1/K
298.15 K, x1 = 0.8013	0.000938 1/K	0.000913 1/K	0.00089 1/K	0.000868 1/K	0.000848 1/K	0.00083 1/K	0.000809 1/K	0.000792 1/K	0.000778 1/K	0.000763 1/K
298.15 K, x1 = 0.8934	0.000896 1/K	0.000874 1/K	0.000855 1/K	0.000835 1/K	0.000816 1/K	0.000797 1/K	0.000781 1/K	0.000763 1/K	0.000751 1/K	0.000739 1/K
298.15 K, x1 = 1	0.00085 1/K	0.000832 1/K	0.000812 1/K	0.000796 1/K	0.00078 1/K	0.000764 1/K	0.000749 1/K	0.000734 1/K	0.000724 1/K	0.000712 1/K

Source: the NIST ThermoML archive (doi:10.1016/j.fluid.2008.10.003)
